Columns and labels:
Assay type in all cases: in vivo
[1] = test system: Alopecurus myosuroides; experiment: Post-emergence herbicidal action in greenhouse against ALOMY; settings: 20 g/ha; post-emergence spray, 600 l/ha water; visual rating after ca. 3 weeks vs untreated controls; 100% = plants dead, 0% = like control plants
Description: (§1) Biologische Beispiele: • Die folgenden Abkürzungen werden für die in den folgenden Tabellen aufgeführten Kultur- und Schadpflanzen verwendet: ABUTH: Abutilon theophrasti ALOMY: Alopecurus myosuroides AMARE: Amaranthus retroflexus BRSNS: Brassica napus DIGSA: Digitaria sanguinalis ECHCG: Echinochloa crus-galli GLXMA: Glycine max KCHSC: Kochia scoparia LOLRI: Lolium rigidum MATIN: Matricaria inodora ORYZA: Oryza sativa PHPBU: Pharbitis purpurea POLCO: Polygonum convolvulus SETVI: Setaria viridis VERPE: Veronica persica VIOTR: Viola tricolor TRZAS: Triticum aestivum ZEAMX: Zea mays • A. Herbizide Wirkung im Nachauflauf
(§2) Samen von mono- bzw. dikotylen Unkrautpflanzen wurden in Kunststoff- oder Holzfasertöpfen in sandigem Lehmboden ausgelegt, mit Erde abgedeckt und im Gewächshaus unter kontrollierten Wachstumsbedingungen angezogen. 2 bis 3 Wochen nach der Aussaat wurden die Versuchspflanzen im Einblattstadium behandelt. Die in Form von benetzbaren Pulvern (WP) oder als Emulsionskonzentrate (EC) formulierten erfindungsgemäßen Verbindungen wurden dann als wässrige Suspension bzw. Emulsion unter Zusatz von 0,5% Additiv mit einer Wasseraufwandmenge von umgerechnet 600 l/ha auf die grünen Pflanzenteile gesprüht. Nach ca. 3 Wochen Standzeit der Versuchspflanzen im Gewächshaus, unter optimalen Wachstumsbedingungen, wurde die Wirkung der Präparate visuell im Vergleich zu unbehandelten Kontrollen bonitiert. Beispielsweise bedeutet 100% Wirkung = Pflanzen sind abgestorben, 0% Wirkung = wie Kontrollpflanzen.
(§3) In den nachstehenden Tabellen A1 bis A11 sind die Wirkungen ausgewählter Verbindungen der allgemeinen Formel (I) gemäß der Tabelle 1 auf verschiedene Schadpflanzen und einer Aufwandmenge entsprechend 20 g/ha und niedriger, die gemäß zuvor genannter Versuchsvorschrift erhalten wurden, dargestellt. Tabelle A1a: Nachauflaufwirkung bei 1,25 g/ha gegen ABUTH in %

[2] = test system: Matricaria inodora; experiment: Post-emergence herbicidal action in greenhouse against MATIN; settings: visual rating after ca. 3 weeks
Description: as §1, §2, §3

[3] = test system: Lolium rigidum; experiment: Post-emergence herbicidal action in greenhouse against LOLRI; settings: 20 g/ha; post-emergence spray, 600 l/ha water; visual rating after ca. 3 weeks vs untreated controls; 100% = plants dead, 0% = like control plants
Description: as §1, §2, §3

[4] = test system: Pharbitis purpurea; experiment: Post-emergence herbicidal action in greenhouse against PHBPU; settings: visual rating after ca. 3 weeks
Description: as §1, §2, §3

[5] = test system: Triticum aestivum; experiment: Post-emergence action on crop plants in greenhouse, TRZAS; settings: crop plant, visual rating after ca. 3 weeks, 100% = plants dead, 0% = like control plants
Description: as §1
as §2, with “Kulturpflanzen” for “Unkrautpflanzen”
as §3, with “B1” for “A1”, “B4” for “A11”, “Kulturpflanzen” for “Schadpflanzen”, “B1a:” for “A1a:”, “ZEAMX” for “ABUTH”

[6] = test system: Viola tricolor; experiment: Post-emergence herbicidal action in greenhouse against VIOTR; settings: visual rating after ca. 3 weeks
Description: as §1, §2, §3

[7] = test system: Setaria viridis; experiment: Post-emergence herbicidal action in greenhouse against SETVI; settings: visual rating after ca. 3 weeks
Description: as §1, §2, §3

[8] = test system: Abutilon theophrasti; experiment: Post-emergence herbicidal action in greenhouse against ABUTH; settings: post-emergence spray, 600 l/ha water, visual rating after ca. 3 weeks vs untreated controls, 100% = plants dead, 0% = like control plants
Description: as §1, §2, §3

[9] = test system: Veronica persica; experiment: Post-emergence herbicidal action in greenhouse against VERPE; settings: visual rating after ca. 3 weeks
Description: as §1, §2, §3

[10] = test system: Oryza sativa; experiment: Post-emergence action on crop plants in greenhouse, ORYZA; settings: crop plant, visual rating after ca. 3 weeks, 100% = plants dead, 0% = like control plants
Description: as §1
as §2, with “Kulturpflanzen” for “Unkrautpflanzen”
as §3, with “B1” for “A1”, “B4” for “A11”, “Kulturpflanzen” for “Schadpflanzen”, “B1a:” for “A1a:”, “ZEAMX” for “ABUTH”

[11] = test system: Zea mays; experiment: Post-emergence action on crop plants in greenhouse, ZEAMX; settings: 1,25 g/ha, crop plant, post-emergence, visual rating after ca. 3 weeks; 100% = plants dead, 0% = like control plants
Description: as §1
as §2, with “Kulturpflanzen” for “Unkrautpflanzen”
as §3, with “B1” for “A1”, “B4” for “A11”, “Kulturpflanzen” for “Schadpflanzen”, “B1a:” for “A1a:”, “ZEAMX” for “ABUTH”

[12] = test system: Polygonum convolvulus; experiment: Post-emergence herbicidal action in greenhouse against POLCO; settings: visual rating after ca. 3 weeks
Description: as §1, §2, §3

[13] = test system: Digitaria sanguinalis; experiment: Post-emergence herbicidal action in greenhouse against DIGSA; settings: visual rating after ca. 3 weeks
Description: as §1, §2, §3

[14] = test system: Amaranthus retroflexus; experiment: Post-emergence herbicidal action in greenhouse against AMARE; settings: post-emergence spray, 600 l/ha water, visual rating after ca. 3 weeks vs untreated controls, 100% = plants dead, 0% = like control plants
Description: as §1, §2, §3

[15] = test system: Brassica napus; experiment: Post-emergence action on crop plants in greenhouse, BRSNS; settings: crop plant; 1,25 g/ha; post-emergence spray, 600 l/ha water; visual rating after ca. 3 weeks vs untreated controls; 100% = plants dead, 0% = like control plants
Description: as §1
Samen von mono- bzw. dikotylen Kulturpflanzen wurden in Kunststoff- oder Holzfasertöpfen in sandigem Lehmboden ausgelegt, mit Erde abgedeckt und im Gewächshaus unter kontrollierten Wachstumsbedingungen angezogen. 2 bis 3 Wochen nach der Aussaat wurden die Versuchspflanzen im Einblattstadium behandelt. Die in Form von benetzbaren Pulvern (WP) oder als Emulsionskonzentrate (EC) formulierten erfindungsgemäßen Verbindungen wurden dann als wässrige Suspension bzw. Emulsion unter Zusatz von 0,5% Additiv mit einer Wasseraufwandmenge von umgerechnet 600 l/ha auf die grünen Pflanzenteile gesprüht. […]

SMILES | Nachauflaufwirkung gegen ALOMY [1] [%] | Nachauflaufwirkung gegen MATIN ([2]; 5 g/ha) [%] | Nachauflaufwirkung gegen MATIN ([2]; 20 g/ha) [%] | Nachauflaufwirkung gegen PHBPU ([4]; 5 g/ha) [%] | Nachauflaufwirkung gegen PHBPU ([4]; 20 g/ha) [%] | Nachauflaufwirkung gegen TRZAS ([5]; 1,25 g/ha) [%] | Nachauflaufwirkung gegen TRZAS ([5]; 5 g/ha) [%] | Nachauflaufwirkung gegen VIOTR ([6]; 5 g/ha) [%] | Nachauflaufwirkung gegen VIOTR ([6]; 20 g/ha) [%] | Nachauflaufwirkung gegen SETVI ([7]; 1,25 g/ha) [%] | Nachauflaufwirkung gegen SETVI ([7]; 5 g/ha) [%] | Nachauflaufwirkung gegen SETVI ([7]; 20 g/ha) [%] | Nachauflaufwirkung gegen VERPE ([9]; 20 g/ha) [%] | Nachauflaufwirkung gegen ORYZA ([10]; 1,25 g/ha) [%] | Nachauflaufwirkung gegen ZEAMX [11] [%] | Nachauflaufwirkung gegen POLCO ([12]; 20 g/ha) [%] | Nachauflaufwirkung gegen DIGSA ([13]; 20 g/ha) [%] | Nachauflaufwirkung gegen AMARE ([14]; 1,25 g/ha) [%] | Nachauflaufwirkung gegen AMARE ([14]; 5 g/ha) [%] | Nachauflaufwirkung gegen AMARE ([14]; 20 g/ha) [%] | also measured
CC(C)(OC(=O)c1cc(-n2c(=O)cc(C(F)(F)F)n(N)c2=O)c(F)cc1Cl)C(=O)OCc1ccccn1 [I.1-286] | 90 | 90 | 100 | 100 | 100 | 0 | 10 | 100 | 100 | 100 | 100 | 100 | 100 | 0 | 20 | 100 | 100 | 100 | 100 | 100 | Nachauflaufwirkung gegen LOLRI [3]: 90%; Nachauflaufwirkung gegen PHBPU ([4]; 1,25 g/ha): 100%; Nachauflaufwirkung gegen VIOTR ([6]; 1,25 g/ha): 90%; Nachauflaufwirkung gegen ABUTH ([8]; 1,25 g/ha): 90%; Nachauflaufwirkung gegen ABUTH ([8]; 5 g/ha): 100%; Nachauflaufwirkung gegen ABUTH ([8]; 20 g/ha): 100%; Nachauflaufwirkung gegen VERPE ([9]; 1,25 g/ha): 100%; Nachauflaufwirkung gegen VERPE ([9]; 5 g/ha): 100%; Nachauflaufwirkung gegen POLCO ([12]; 5 g/ha): 100%; Nachauflaufwirkung gegen DIGSA ([13]; 5 g/ha): 100%
CC(C)=NOC(=O)C(C)(C)OC(=O)c1cc(-n2c(=O)cc(C(F)(F)F)n(N)c2=O)c(F)cc1Cl [I.1-491] | 100 | 100 | 100 | 100 | 100 | 0 | 0 | 100 | 100 | 100 | 100 | 100 | 100 | 0 | 20 | 100 | 100 | 100 | 100 | 100 | Nachauflaufwirkung gegen LOLRI [3]: 80%; Nachauflaufwirkung gegen PHBPU ([4]; 1,25 g/ha): 100%; Nachauflaufwirkung gegen VIOTR ([6]; 1,25 g/ha): 80%; Nachauflaufwirkung gegen ABUTH ([8]; 1,25 g/ha): 100%; Nachauflaufwirkung gegen ABUTH ([8]; 5 g/ha): 100%; Nachauflaufwirkung gegen ABUTH ([8]; 20 g/ha): 100%; Nachauflaufwirkung gegen VERPE ([9]; 5 g/ha): 100%; Nachauflaufwirkung gegen DIGSA ([13]; 5 g/ha): 100%
CC(C)(OC(=O)c1cc(-n2c(=O)cc(C(F)(F)F)n(N)c2=O)ccc1Cl)C(=O)O [I.2-481, 2-({5-[3-Amino-2,6-dioxo-4-(trifluormethyl)-3,6-dihydropyrimidin-1(2H)-yl]-2-chlorbenzoyl}oxy)-2-methylpropansäure] | – | – | 100 | 100 | 100 | 0 | 0 | 80 | 100 | 80 | 90 | 100 | 100 | 0 | 20 | 100 | 100 | 90 | 100 | 100 | Nachauflaufwirkung gegen TRZAS ([5]; 20 g/ha): 20%; Nachauflaufwirkung gegen BRSNS [15]: 0%; Nachauflaufwirkung gegen ORYZA ([10]; 5 g/ha): 0%; Nachauflaufwirkung gegen ORYZA ([10]; 20 g/ha): 0%; Nachauflaufwirkung gegen POLCO ([12]; 5 g/ha): 100%

Source: patent EP4230620A1, “SUBSTITUTED N-AMINO-N-BENZOIC ACID URACILS, THEIR SALTS AND USE OF SAID COMPOUNDS AS HERBICIDAL AGENTS” (Bayer Aktiengesellschaft, priority 2022, dated 2023)
